Measurements reported in US8637237B2, “Methods, compositions, and systems for the identification of species-specific or developmental stage-specific insecticides” (The University of North Carolina at Greensboro, priority 2003, dated 2014).

Experiments:
[1] = test system: insect; conditions: from Schneiderman and Gilbert, Science 143; cited from earlier work
[2] = test system: Drosophila melangaster EcR isoforms; assay: Drosophila melanogaster EcR isoforms, response to ecdysteroid agonists (FIG. 8); type: cell-based
Procedure: Unless noted otherwise, 100 ng of each EcR and USP plasmid was transfected into 2 ml of cell culture medium. As noted above, a reporter gene carrying five tandem copies of the hsp27 ecdysone response element (Riddihough and Pelham, 1986) is attached to a constitutive thymidine kinase promoter and a luciferase reporter gene (pEcREtk-LUC) and cotransfected into the cells along with vectors expressing EcR, USP, and a constitutively active β-galactosidase gene with lipofection, following manufacturer's protocols. The subsequent measure of luciferase activity reflects ecdysteroid-inducible transcription.
The Drosophila EcR isoform vectors (A, B1, and B2) used for these experiments have been described previously (Mouillet et al, 2001). These vectors lack the F-domain, which is also not essential for in vivo function (Cherbas et al, 2003). Additionally, three different VP16-USP vectors were utilized. Construction is of the VP16-USP vectors is described below. As in the earlier study, hsp27-EcRE mediated transcriptional activity was measured by detecting the luminescence produced by luciferase in transfected cell extracts. Luciferase activity was normalized by transfection with a plasmid that constitutively expresses the β-galactosidase gene such that enzymatic activity correlated with cellular mass. […]

[3] = molecular target: T1, GGEc (Drosophila melanogaster, UniProt P34021); assay: GGEc chimera (GR amino terminus and DBD, EcR LBD) with RXR in CHO cells; type: cell-based; conditions: 20 μM juvocimene; 0.2 μM muristerone A
T1 construct: were replaced by EcR LBD amino acids (EcR amino acids 329 to 878); expressed in transfected cells; host or cells: CHO
T1 sequence (P34021 329-878): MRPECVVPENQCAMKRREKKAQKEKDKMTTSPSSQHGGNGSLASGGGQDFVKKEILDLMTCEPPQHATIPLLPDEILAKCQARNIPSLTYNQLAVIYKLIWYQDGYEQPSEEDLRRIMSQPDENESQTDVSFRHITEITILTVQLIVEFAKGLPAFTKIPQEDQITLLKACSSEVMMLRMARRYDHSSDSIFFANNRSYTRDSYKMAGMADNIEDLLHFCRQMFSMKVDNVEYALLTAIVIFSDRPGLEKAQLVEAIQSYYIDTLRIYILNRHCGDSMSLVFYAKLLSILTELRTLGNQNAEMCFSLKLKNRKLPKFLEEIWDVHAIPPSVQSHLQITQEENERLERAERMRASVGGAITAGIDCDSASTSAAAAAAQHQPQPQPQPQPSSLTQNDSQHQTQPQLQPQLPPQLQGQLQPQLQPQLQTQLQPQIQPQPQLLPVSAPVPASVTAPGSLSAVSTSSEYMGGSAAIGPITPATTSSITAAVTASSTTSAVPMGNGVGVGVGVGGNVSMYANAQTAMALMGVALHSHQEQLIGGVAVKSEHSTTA
Description: For these experiments, the luciferase reporter construct was used. To obviate influences from other transcription factors, results were normalized using a reporter plasmid from which CAT expression is driven by a minimal promoter consisting of dimerized GREs linked upstream of a 13 base pair TATA box DNA element derived from the adenovirus E1B gene.
In this experiment, GGEc and RXR were transfected into CHO cells with either a CAT or a luciferase reporter plasmid containing 1.5 kilobase pairs of the glucocorticoid-inducible mouse mammary tumor virus (MTV) promoter.
In these experiments, CHO cells were transfected with a GGEc-expressing plasmid, a mouse RXRα expression plasmid, and an adenovirus E1b TATA-(GRE)2-CAT reporter plasmid. The GGEc plasmid was eliminated from DNA mixtures added to cells transfected in parallel. CAT activities were measured from lysates of cells from triplicate wells treated with ethanol vehicle, juvocimene (20 μM), muristerone A (0.2 μM), or both.
In these experiments, CHO cells were transfected with DNAs as described above but ubiquinone-2 (10 μM) was substituted for juvocimene.

## CC(C)=CCCC(C)=CCCC(C)=CC(=O)O [farnesoic acid]
[1]
  JH ACTIVITY (units/g): 7.8 units/g

## CC(C)CC[C@@H](O)[C@](C)(O)[C@H]1CC[C@@]2(O)C3=CC(=O)[C@]4(O)C[C@@H](O)[C@@H](O)C[C@]4(C)[C@H]3[C@H](O)C[C@]12C [murA, muristerone A]
[2]
  stimulation of Drosophila EcR isoforms, agonists compared: much greater stimulation by murA, than either 20E or RH 2485

## juvocimene
[3]
  GGEc activity increase over MUR: 7 times
